Measured values: PMC3660367, “MARCKS Protein Is Phosphorylated and Regulates Calcium Mobilization during Human Acrosomal Exocytosis” (PLoS ONE, 2013)
No end group written: not given here.

Experiments:
[1] = system: living human sperm; experiment: Permeation of ED-TMR into non-permeabilized human sperm (fluorescence microscopy, trypsin treatment before fixation); assay type: cell-based; conditions: 4 µM ED-TMR 30 min 37°C, then 0.5 µg/ml trypsin 30 min 37°C before fixation
Description: So far all results were obtained using the SLO-permeabilized human sperm model. […] Fortunately, MARCKS ED meets this requirement and it can be assayed in acrosomal exocytosis in non-permeabilized sperm. To investigate the function of MARCKS in intact cells, we analyzed the effect of a permeable peptide corresponding to wt MARCKS ED in living human sperm. We used a commercial MARCKS peptide, the tetramethylrhodamine-conjugated peptide sequence KKRFSFKKSFKL (ED-TMR) derived from amino acid residues 154 –165 of human MARCKS ED, which retains the first two of the four serine residues in the ED (see peptide scheme in Fig. 3A). First, we determined the permeability of ED-TMR in living human sperm (see Fig. S3). To rule out that the translocation of the protein was a fixation artifact, cells were treated with trypsin before fixation. […] A similar permeable MARCKS peptide has been used in sea urchin sperm and it was found enriched in the acrosome region.
Supplementary file pone.0064551.s003.tif: Figure S3 MARCKS peptide permeates into non-permeabilized sperm. (A) Non-permeabilized sperm were treated for 30 minutes at 37°C with 4 µM permeable MARCKS ED domain (ED-TMR) and then incubated with (+) or without (-) 0.5 µg/ml trypsin for 30 minutes at 37°C. […] (B) Quantification of tetramethylrhodamine-labeled acrosome sperm. At least 300 cells were scored. […]

[2] = system: acrosomal exocytosis in non-permeabilized human sperm; experiment: Acrosomal exocytosis assay in non-permeabilized (living) human sperm; assay type: cell-based
Description: Acrosomal exocytosis assays were performed as previously described. Briefly, human semen obtained from normal healthy donors was allowed to liquefy for 30-60 min at 37°C. We used a swim-up protocol to isolate highly motile sperm under capacitating conditions in Human Tubal Fluid media (HTF, as formulated by Irvine Scientific, Santa Ana, CA) supplemented with 0.5% bovine serum albumin (BSA) for 1 h at 37°C in an atmosphere of 5% CO2/95% air. Sperm concentrations were adjusted to 5–10×10^6 cells/ml and incubated for at least 2 h under capacitating conditions. We have shown previously that human sperm incubated under these conditions are responsive to progesterone. […] Acrosomal status was evaluated by staining with FITC-coupled Pisum sativum agglutinin (FITC-PSA) according to [21]. At least 200 cells were scored using a Nikon Optiphot II microscope equipped with epifluorescence optics. […] For each experiment, acrosomal exocytosis indexes were calculated by subtracting the number of reacted spermatozoa in the negative control (range 10%–30%) from all values, and expressing the resulting values as a percentage of the acrosome exocytosis observed in the positive control (range 25%–40%). […] Data were evaluated using one-way ANOVA and post hoc tests (Dunnett's test or confident intervals). […]

KKRFSFKKSFKL (also: tetramethylrhodamine conjugate, site not given here) [ED-TMR, commercial (Anaspec) tetramethylrhodamine-conjugated peptide … from residues 154–165 of human MARCKS ED]
permeability of ED-TMR in living human sperm (localisation) [1]: detected mainly in the head of human sperm | effect on acrosomal exocytosis stimulated by A23187, PMA and progesterone ([2]; non-permeabilized capacitated sperm, peptide 30 min 37°C, then 10 µM A23187, 200 nM PMA or 15 µM progesterone 15 min): inhibited the secretion | acrosomal exocytosis index at high concentrations versus unstimulated controls (basal exocytosis) ([2]; non-permeabilized sperm, high concentrations): significantly lower than the index in unstimulated controls
